Molecular target: 40-residue Alzheimer’s β-amyloid peptide (Aβ40) fibrils (Homo sapiens, UniProt P05067)
Assay: HPLC titration of free/bound ligand on preformed fibrils
Format: binding

40-residue Alzheimer’s β-amyloid peptide (Aβ40) fibrils, sequence (P05067 672-711): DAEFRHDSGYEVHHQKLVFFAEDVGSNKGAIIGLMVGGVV

SMILES: CNc1ccc(-c2nc3ccc(O)cc3s2)cc1F [flutemetamol]
- Kd: 1.6 ± 0.2 µM

Source: publication PMC8855532 (Journal of the American Chemical Society, 2022)
